Reference: patent US6956030B2, “Use of mometasone furoate for treating upper airway diseases” (Schering Corporation, priority 1994, dated 2005)
Marks after values point to notes of the source that are not given here.

Experiments:
plasma cortisol = assay: Phase I rising single-dose safety and tolerance study, metered dose inhaler, 24-hour plasma cortisol; type: in vivo, healthy male volunteers
Protocol: Several Phase I studies were conducted using mometasone furoate formulated for delivery as a suspension in a pressurized metered dose inhaler (MDI). In a randomized, third-party blinded, placebo-controlled rising single-dose safety and tolerance study, aerosolized mometasone furoate was administered by a metered dose inhaler to eight healthy male volunteers. Doses were administered at 11 p.m. and plasma cortisol concentrations were measured during the following 24-hour period.

[1] = cited from earlier work; for efficacy in treating asthma in clinical trials: clinical trials / Phase II; for systemic side effects: in vivo
[2] = HPLC/radio-flow metabolite profiling of plasma, urine and fecal extracts after ^3H-MF; type: in vivo, normal healthy male volunteers
Text: The substantial minimization of the systemic effect of mometasone furoate administered intranasally or by oral inhalation has been measured by High Performance Liquid Chromatography (HPLC) metabolite profiling of plasma radioactivity of mometasone furoate, its substantially complete (>98%) first-pass metabolism in the liver and by a minimal reduction in cortisol secretion levels.
(§1) Plasma, urine, expired air filters, Respirgard and fecal samples were collected and assayed for radioactivity content. The limit of quantitation (LOQ) for plasma radioactivity ranged from 0.103 to 0.138 ng eq/ml., except for the nasal spray treatment where the LOQ was 0.025 ng eq/ml. Selected plasma, urine and fecal samples were analyzed for metabolite profiles.
Selected plasma, urine and fecal extracts were analyzed by high performance liquid chromatography (HPLC) with radio-flow monitoring to determine metabolite profiles. […] Approximately 1.5% of the 3 hr. plasma radioactivity was associated with parent drug indicating extensive first past metabolism and rapid inactivation by the liver. In contrast, following intravenous administration, approximately 39% of the 3 hr. plasma radioactivity was associated with parent drug. Approximately 12% and 33% of the 3 hr. plasma radioactivity was associated with parent drug following administration of the MDI and Gentlehaler, respectively. In general, the plasma concentrations of radioactivity following the nasal and oral suspension routes of administration were too low for metabolite profiling.
Hydrolysis of plasma and urine was performed with an enzyme preparation containing both β-glucuronidase and aryl sulfatase. These experiments yielded modest changes in the HPLC metabolite profiles that were consistent with the hydrolytic release of conjugated metabolites.

[3] = Drug metabolism/clinical pharmacology study: absorption and excretion of total radioactivity after ^3H-MF by various routes; type: in vivo, normal healthy male volunteers; details: for AUC (1) of total radioactivity, dose normalized / Cmax of total radioactivity, dose normalized: based on dose normalized data; for percent of dose as tritiated water in the body: estimated from urinary distillation experiments
Protocol: In addition, a single-dose absorption, excretion and metabolism study using 200 mcg of ^3H-mometasone furoate as the nasal spray formulation was conducted in 6 normal male volunteers. When systemic absorption (based on urinary excretion) was compared to an intravenously administered dose of ^3H-mometasone furoate, it was 8%.
A drug metabolism and clinical pharmacology study was conducted by administering (by various routes) tritium-labeled mometasone furoate (“^3H-MF”) to 6 groups of 6 normal male volunteers in each group. Blood and urine samples were collected for measurement of total drug (including metabolites).
The objectives of these studies in male volunteers were to determine the absorption, metabolism and excretion of ^3H-labeled mometasone furoate (“^3H-MF”) following administration by oral swallow as a solution and as an aqueous suspension of the monohydrate, by oral inhalation as a suspension from a standard metered dose inhaler (MDI) and from a metered dose inhaler containing a spacer device (Gentlehaler), by nasal inhalation as an aqueous suspension of the mometasone furoate monohydrate from a nasal spray unit and by intravenous injection as a solution.
Thirty-six (n=6 per treatment group) normal healthy male volunteers between the ages of 19 and 40 yr. (average 29 yr.) having weights in accordance with current actuarial tables (+10%) were enrolled in these single dose studies. All subjects were determined to be in good health by their medical history, physical examinations, clinical and laboratory tests.
as §1
Pharmacokinetics—The mean (n=6) plasma concentrations of total radioactivity are illustrated in Summary FIG. 1 and the mean (n=6) pharmacokinetic parameters derived from total plasma radioactivity are presented in Table 2.

[4] = of the inhalation dose; cited from earlier work

CCC(=O)OCC(=O)[C@@]1(OC(=O)CC)[C@@H](C)C[C@H]2[C@@H]3CCC4=CC(=O)C=C[C@]4(C)[C@@]3(Cl)[C@@H](O)C[C@@]21C [beclomethasone dipropionate]
reduction of 24-hour area under the curve plasma cortisol profile (AUC 0-24) compared to placebo (plasma cortisol; single dose 1000 mcg by MDI at 11 p.m.): 30%
reduction of 24-hour area under the curve plasma cortisol profile (AUC 0-24) compared to placebo (plasma cortisol; single dose 2000 mcg by MDI at 11 p.m.): 38%
reduction of 24-hour area under the curve plasma cortisol profile (AUC 0-24) compared to placebo (plasma cortisol; single dose 4000 mcg by MDI at 11 p.m.): 65%

CCCC(=O)O[C@]1(C(=O)CSC(=O)CC)CC[C@H]2[C@@H]3CCC4=CC(=O)CC[C@]4(C)[C@H]3[C@@H](O)C[C@@]21C [butixocort propionate]
efficacy in treating asthma in clinical trials [1]: some efficacy
systemic side effects [1]: low systemic side-effects

C[C@@H]1C[C@H]2[C@@H]3CCC4=CC(=O)C=C[C@]4(C)[C@@]3(Cl)[C@@H](O)C[C@]2(C)[C@@]1(OC(=O)c1ccco1)C(=O)CCl [^3H-MF]
3 hr. plasma radioactivity associated with parent drug ([2]; Gentlehaler): ~33%
urine metabolite profile ([2]; Gentlehaler): all of the radioactivity was associated with metabolites more polar than parent drug
3 hr. plasma radioactivity associated with parent drug ([2]; MDI): Approximately 12%
3 hr. plasma radioactivity associated with parent drug ([2]; intravenous): approximately 39%
urinary and fecal extract metabolite profile ([2]; intravenous and oral solution): all of the radioactivity was associated with metabolites more polar than parent drug
fecal extract metabolite profile ([2]; nasal spray, oral suspension, MDI and Gentlehaler): presence primarily of mometasone furoate
3 hr. plasma radioactivity associated with parent drug ([2]; oral solution): Approximately 1.5%
plasma metabolite profile ([2]; oral solution): most of the plasma radioactivity was associated with metabolites more polar than the available standards
% Absorbed (AUC): radioactivity absorbed, dose normalized versus intravenous data ([3]; Gentlehaler): 69* %
% Absorbed (Urine): radioactivity absorbed, urinary excretion compared to the intravenous dose ([3]; Gentlehaler): 67%
Feces (% dose): administered radioactivity excreted in feces through 168 hr ([3]; Gentlehaler): 89%
U + F (% dose): total dose recovered in urine and feces through 168 hr ([3]; Gentlehaler): 105%
Urine (% dose): administered radioactivity excreted in the urine through 168 hr ([3]; Gentlehaler): ~16%
absorption of drug-derived radioactivity (dose normalized AUC and urinary excretion data) ([3]; Gentlehaler): 67-69%
AUC (1) of total radioactivity to infinity ([3]; Gentlehaler 0.40 mg): 110 ng eq hr/ml
AUC (1) of total radioactivity, dose normalized ([3]; Gentlehaler): 275 ng eq hr/ml
Cmax of total radioactivity, dose normalized ([3]; Gentlehaler): 1.71 ng eq/ml
% Absorbed (AUC): radioactivity absorbed, dose normalized versus intravenous data ([3]; MDI): 23* %
% Absorbed (Urine): radioactivity absorbed, urinary excretion compared to the intravenous dose ([3]; MDI): 30%
Feces (% dose): administered radioactivity excreted in feces through 168 hr ([3]; MDI): 86%
U + F (% dose): total dose recovered in urine and feces through 168 hr ([3]; MDI): 94%
Urine (% dose): administered radioactivity excreted in the urine through 168 hr ([3]; MDI): ~7%
absorption of drug-derived radioactivity (dose normalized AUC and urinary excretion data) ([3]; MDI): 23-30%
AUC (1) of total radioactivity to infinity ([3]; MDI 0.86 mg): 81 ng eq hr/ml
AUC (1) of total radioactivity, dose normalized ([3]; MDI): 94 ng eq hr/ml
Cmax of total radioactivity, dose normalized ([3]; MDI): 0.93 ng eq/ml
tritium label exchanged with body water ([3]; human, in vivo): less than 4%
Feces (% dose): administered radioactivity excreted in feces through 168 hr ([3]; intravenous): 54%
U + F (% dose): total dose recovered in urine and feces through 168 hr ([3]; intravenous): 78%
AUC (1) of total radioactivity to infinity ([3]; intravenous solution 1.03 mg): 401 ng eq hr/ml
Cmax (C5min) of total radioactivity ([3]; intravenous solution 1.03 mg, mean n=6): 23.7 ng eq/ml
percent of dose as tritiated water in the body ([3]; intravenous): approximately 3.7%
Feces (% dose): administered radioactivity excreted in feces through 168 hr ([3]; nasal spray): 78%
U + F (% dose): total dose recovered in urine and feces through 168 hr ([3]; nasal spray): 80%
AUC (1) of total radioactivity to infinity ([3]; nasal spray 0.19 mg): BQL
Cmax of total radioactivity ([3]; nasal spray 0.19 mg, LOQ 0.025 ng eq/ml): BQL**
Cmax of total radioactivity ([3]; nasal spray 0.19 mg, LOQ 0.025 ng eq/ml, listed as 3H-mometasone furoate): below the limit of quantification
% Absorbed (Urine): radioactivity absorbed, urinary excretion compared to the intravenous dose ([3]; nasal spray, listed as 3H-mometasone furoate): 8%
% Absorbed (AUC): radioactivity absorbed, dose normalized versus intravenous data ([3]; oral solution): 122%
% Absorbed (Urine): radioactivity absorbed, urinary excretion compared to the intravenous dose ([3]; oral solution): 104%
Feces (% dose): administered radioactivity excreted in feces through 168 hr ([3]; oral solution): 62%
U + F (% dose): total dose recovered in urine and feces through 168 hr ([3]; oral solution): 87%
AUC (1) of total radioactivity to infinity ([3]; oral solution 1.03 mg): 488 ng eq hr/ml
Cmax of total radioactivity ([3]; oral solution 1.03 mg, mean n=6): 4.8 ng eq/ml
percent of dose as tritiated water in the body ([3]; oral solution): ~2.9%
Feces (% dose): administered radioactivity excreted in feces through 168 hr ([3]; oral suspension): 73%
U + F (% dose): total dose recovered in urine and feces through 168 hr ([3]; oral suspension): 75%
AUC (1) of total radioactivity to infinity ([3]; oral suspension 0.99 mg): BQL
Cmax of total radioactivity ([3]; oral suspension 0.99 mg, LOQ 0.103 to 0.138 ng eq/ml): BQL
route of excretion of radioactivity ([3]; regardless of dosage form and route of administration): predominantly excreted in the feces

CCS[C@]1(SC)CC[C@H]2[C@@H]3CCC4=CC(=O)C=C[C@]4(C)[C@@]3(F)[C@@H](O)C[C@@]21C [tipredane]
efficacy in treating asthma in clinical trials [1]: have not demonstrated a level of efficacy in treating asthma which would be considered therapeutically useful
systemic side effects [1]: low systemic side effects

CCCC1O[C@@H]2C[C@H]3[C@@H]4CCC5=CC(=O)C=C[C@]5(C)[C@H]4[C@@H](O)C[C@]3(C)[C@]2(C(=O)CO)O1 (stereo partly shown) [budesonide]
systemic bioavailability after oral ingestion [4]: greater than 10%
